# Measurements from US6878742B2, “Heterocyclic sulfonamide inhibitors of beta amyloid production” (Wyeth, priority 2000, dated 2005).
# Values joined by “and” are separate entries in the source; they are usually repeats but may differ in a detail not shown here. Identical values can stand only once.
# Test system: amyloid precursor protein (APP) proteolysis
# Assay: Repressor Release Assay (RRA)
# Type: cell-based
# Details: Conc 1 μg/mL; luciferase activity over diluent control
# Procedure, shortened: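 CHO-K1 cells grown in DMEM with 10% fetal bovine serum were transiently co-transfected with pRSVO-luc and APP-lacI constructs via Lipofectamine Plus, plated into opaque 96-well plates, and exposed to diluted compound in duplicate for 36-48 hours at 37° C. LucLite luciferase signal was read on a TopCount and expressed as fold increase in relative light units over Hepes/DMSO diluent control.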
row,Compound,APPI Fold Increase
1,O=S(=O)(NC(CO)C1CCCCC1)c1ccc(Br)s1 (stereo not shown) [Example 13],2.17 fold

# Same assay, conditions: Conc 3 μg/mL; luciferase activity over diluent control
row,Compound,APPI Fold Increase
1,O=S(=O)(NC(CO)C1CCCCC1)c1ccc(Br)s1 (stereo not shown) [Example 13],4.02 fold
2,CC(C)CC(CO)NS(=O)(=O)c1ccc(Cl)s1 (stereo not shown) [Example 90],1.74 fold
3,O=S(=O)(NC1(CO)CCCC1)c1ccc(Br)s1 [Example 109],1.8 fold

# Same assay, conditions: Conc 3 μg/mL; luciferase activity over diluent control; read-out: APPI Fold Increase
row,Compound,fold induction at 3 µg/mL
1,"CC[C@H](C)[C@@H](CO)NS(=O)(=O)C1=CC=C(Br)S1(=O)=O [Example 18, 5-Bromo-N-[(1S,2S)-1-(hydroxymethyl)-2-methylbutyl]thiophene-2-sulfonamide 1,1-dioxide]",2.19

# Same assay, conditions: Conc 10 μg/mL; luciferase activity over diluent control
row,Compound,APPI Fold Increase
1,CCCCC(O)C(NS(=O)(=O)c1ccc(Cl)s1)C(C)CC (mixture of isomers) [Example 123],2.14 fold and 1.76 fold
2,O=S(=O)(NC1(CO)CCCC1)c1ccc(Cl)s1 [Example 94],2.4 fold
3,C=C(C)C(O)C(NS(=O)(=O)c1ccc(Cl)s1)C(C)CC (mixture of isomers) [Example 133],2.51 fold and 1.68 fold
4,O=S(=O)(NC(CO)C1CCCCC1)c1ccc(Br)s1 (stereo not shown) [Example 13],3.94 fold
5,CC(C)CC(CO)NS(=O)(=O)c1ccc(Cl)s1 (stereo not shown) [Example 90],3.82 fold
6,O=S(=O)(NC1(CO)CCCC1)c1ccc(Br)s1 [Example 109],2 fold

# Same assay, conditions: Conc 10 μg/mL; luciferase activity over diluent control; read-out: APPI Fold Increase
row,Compound,fold induction at 10 µg/mL
1,"CC[C@H](C)[C@H](NS(=O)(=O)c1cccs1)C(O)c1ccc(OC)cc1 (stereo partly drawn) [Example 149, N-{(S,S)-1-[hydroxy(4-methoxyphenyl)methyl]-2-methylbutyl}thiophene-2-sulfonamide]",1.62
2,"C=CCCC(O)[C@@H](NS(=O)(=O)c1cccs1)[C@@H](C)CC (stereo partly drawn) [Example 151, N-{(S)-2-hydroxy-1-[(S)-1-methylpropyl]hex-5-enyl}thiophene-2-sulfonamide]",1.94
3,"CCCCCCC(O)[C@@H](NS(=O)(=O)c1cccs1)[C@@H](C)CC (stereo partly drawn) [Example 141, N-{(S)-2-hydroxy-1-[(S)-1-methylpropyl]octyl}thiophene-2-sulfonamide]",4.2
4,"C=CCCC(O)[C@@H](NS(=O)(=O)c1ccc(Cl)s1)[C@@H](C)CC (stereo partly drawn) [Example 137, 5-chloro-N-{(S)-2-hydroxy-1-[(S)-1-methylpropyl]hex-5-enyl}thiophene-2-sulfonamide]",1.96
5,"CC[C@H](C)[C@H](NS(=O)(=O)c1ccc(Cl)s1)C(O)(c1ccc(OC)cc1)c1ccc(OC)cc1 [Example 169, 5-chloro-N-((S,S)-1-{hydroxy[bis(4-methoxyphenyl)]methyl}-2-methylbutyl)thiophene-2-sulfonamide]",1.51
6,"CC[C@H](C)[C@H](NS(=O)(=O)c1ccc(Cl)s1)C(O)C=C(C)C (stereo partly drawn) [Example 132, 5-chloro-N-{(S)-2-hydroxy-4-methyl-1-[(S)-1-methylpropyl]pent-3-enyl}thiophene-2-sulfonamide]",1.68
7,"CC[C@H](C)[C@@H](CO)NS(=O)(=O)C1=CC=C(Br)S1(=O)=O [Example 18, 5-Bromo-N-[(1S,2S)-1-(hydroxymethyl)-2-methylbutyl]thiophene-2-sulfonamide 1,1-dioxide]",5.23

# Same assay, conditions: Conc 20 μg/mL; luciferase activity over diluent control
row,Compound,APPI Fold Increase
1,"CC[C@H](C)[C@@H](CO)NS(=O)(=O)c1cccs1 [Example 210, N-[(1S,2S)-1-(Hydroxymethyl)-2-methylbutyl]thiophene-2-sulfonamide]",7.7 fold
2,"5-chloro-N-{(S,R)-2-hydroxy-1-[(S)-1-methylpropyl]pent-4-enyl}thiophene-2-sulfonamide [Example 189]",8.1 fold and 7.9 fold and 7.2 fold and 4.4 fold
3,CCCNC1CCC(C(CO)NS(=O)(=O)c2ccc(Cl)s2)CC1 (mixture of isomers) [Example 214],2.1 fold
4,CC(C)CC(CO)NS(=O)(=O)c1ccc(Cl)s1 (stereo not shown) [Example 90],3.6 fold

# Same assay, conditions: Conc 20 μg/mL; luciferase activity over diluent control; read-out: APPI Fold Increase
row,Compound,fold induction at 20 µg/mL
1,"C[C@@H](c1ccco1)[C@@H](CO)NS(=O)(=O)c1ccc(Cl)s1 [Example 48, 5-chloro-N-[(1S,2R)-2-(2-furyl)-1-(hydroxymethyl)propyl]thiophene-2-sulfonamide]",4.7
2,"O=S(=O)(N[C@H](CO)C1Cc2ccccc2C1)c1ccc(Cl)s1 [Example 228, 5-Chloro-N-[(1S)-1-(2,3-dihydro-1H-inden-2-yl)-2-hydroxyethyl]thiophene-2-sulfonamide]",9.9
3,"CCC[C@H](CC)[C@@H](CO)NS(=O)(=O)c1ccc(Br)s1 [Example 60, 5-bromo-N-[(1S,2S)-2-ethyl-1-(hydroxymethyl)pentyl]thiophene-2-sulfonamide]",6.9
4,"CCC(CO)(CO)NS(=O)(=O)c1ccc(Br)s1 [Example 108, N-[1,1-bis(hydroxymethyl)propyl]-5-bromothiophene-2-sulfonamide]",2
5,"CC(NCCO)[C@@H](CO)NS(=O)(=O)c1ccc(Cl)s1 (stereo partly drawn) [Example 81, 5-chloro-N-[(1S)-2-[(2-hydroxyethyl)amino]-1-(hydroxymethyl)propyl]-2-thiophenesulfonamide]",1.5
6,"CCCCCC[C@@H](c1ccco1)[C@@H](CO)NS(=O)(=O)c1ccc(Cl)s1 [Example 51, 5-chloro-N-[(1S,2R)-2-(2-furyl)-1-(hydroxymethyl)octyl]thiophene-2-sulfonamide]",4
7,"CC(C)C[C@@H](c1ccco1)[C@@H](CO)NS(=O)(=O)c1ccc(Br)s1 [Example 72, 5-bromo-N-[(1S,2R)-2-(2-furyl)-1-(hydroxymethyl)-4-methylpentyl]thiophene-2-sulfonamide]",6.4
8,"CC[C@H](C)[C@@H](CO)NS(=O)(=O)c1ccc(I)s1 [Example 207, N-[(1S,2S)-1-(Hydroxymethyl)-2-methylbutyl]-5-iodo-2-thiophenesulfonamide]",5.6
9,"CCCCC[C@H](CC)[C@@H](CO)NS(=O)(=O)c1ccc(Cl)s1 [Example 41, 5-chloro-N-[(1S,2S)-2-ethyl-1-(hydroxymethyl)heptyl]thiophene-2-sulfonamide]",4.7
10,"O=S(=O)(N[C@H](CO)Cc1ccc(OCc2ccccc2)cc1)c1ccc(Br)s1 [Example 116, N-{(S)-1-[4-(benzyloxy)benzyl]-2-hydroxyethyl}-5-bromothiophene-2-sulfonamide]",2.2
11,"CCC(C)C(C)C(CO)NS(=O)(=O)c1ccc(Cl)s1 (stereo not shown) [Example 19, 5-Chloro-N-[1-(hydroxymethyl)-2,3-dimethylpentyl]thiophene-2-sulfonamide]",6
12,"C[C@@H](O)[C@@H](CO)NS(=O)(=O)c1ccc(Cl)s1 [Example 103, 5-chloro-N-[(R,R)-2-hydroxy-1-(hydroxymethyl)propyl]thiophene-2-sulfonamide]",2.3
13,"CC(C)C[C@@H](c1ccco1)[C@@H](CO)NS(=O)(=O)c1ccc(Cl)s1 [Example 50, 5-chloro-N-[(1S,2R)-2-(2-furyl)-1-(hydroxymethyl)-4-methylpentyl]thiophene-2-sulfonamide]",7.7
14,"CCC(NCCO)[C@@H](CO)NS(=O)(=O)c1ccc(Cl)s1 (stereo partly drawn) [Example 82, 5-chloro-N-[(1S)-2-[(2-hydroxyethyl)amino]-1-(hydroxymethyl)butyl]-2-thiophenesulfonamide]",2.2
15,"CCCCC(CO)NS(=O)(=O)c1ccc(Cl)s1 (racemic) [Example 91, 5-chloro-N-[1-(hydroxymethyl)pentyl]thiophene-2-sulfonamide]",2
16,"CCCCCC[C@@H](CCCCC)[C@@H](CO)NS(=O)(=O)c1ccc(Cl)s1 [Example 44, 5-chloro-N-[(1S,2R)-1-(hydroxymethyl)-2-pentyloctyl]thiophene-2-sulfonamide]",1.6
17,"CC(NCc1ccccc1)[C@@H](CO)NS(=O)(=O)c1ccc(Cl)s1 (stereo partly drawn) [Example 84, N-[(1S)-2-(benzylamino)-1-(hydroxymethyl)propyl]-5-chloro-2-thiophenesulfonamide]",3.8
18,"CC[C@@H](c1ccco1)[C@@H](CO)NS(=O)(=O)c1ccc(Br)s1 [Example 71, 5-bromo-N-[(1S,2R)-2-(2-furyl)-1-(hydroxymethyl)butyl]thiophene-2-sulfonamide]",5.2
19,"CCC[C@H](c1ccccc1)[C@@H](CO)NS(=O)(=O)c1ccc(Cl)s1 [Example 38, 5-chloro-N-[(1S,2R)-1-(hydroxymethyl)-2-phenylpentyl]thiophene-2-sulfonamide]",4.1
20,"CC[C@@H](c1ccco1)[C@@H](CO)NS(=O)(=O)c1ccc(Cl)s1 [Example 49, 5-chloro-N-[(1S,2R)-2-(2-furyl)-1-(hydroxymethyl)butyl]thiophene-2-sulfonamide]",6.1
21,"CC[C@@H](c1ccc(-c2ccccc2)cc1)[C@@H](CO)NS(=O)(=O)c1ccc(Cl)s1 [Example 54, N-[(1S,2S)-2-[1,1'-biphenyl]-4-yl-1-(hydroxymethyl)butyl]-5-chlorothiophene-2-sulfonamide]",3.3
22,"C[C@@H](c1ccc(-c2ccccc2)cc1)[C@@H](CO)NS(=O)(=O)c1ccc(Cl)s1 [Example 53, N-[(1S,2S)-2-[1,1'-biphenyl]-4-yl-1-(hydroxymethyl)propyl]-5-chlorothiophene-2-sulfonamide]",3.9
23,"CCC(NCc1ccccc1)[C@@H](CO)NS(=O)(=O)c1ccc(Cl)s1 (stereo partly drawn) [Example 85, N-[(1S)-2-(benzylamino)-1-(hydroxymethyl)butyl]-5-chloro-2-thiophenesulfonamide]",8.9
24,"CC[C@H](C)[C@@H](CO)NS(=O)(=O)C1=CC=C(Br)S1(=O)=O [Example 18, 5-Bromo-N-[(1S,2S)-1-(hydroxymethyl)-2-methylbutyl]thiophene-2-sulfonamide 1,1-dioxide]",5.7
25,"CCCC(CO)NS(=O)(=O)c1ccc(Br)s1 (racemic) [Example 112, 5-bromo-N-[1-(hydroxymethyl)butyl]thiophene-2-sulfonamide]",1.6
26,"CC(C)C[C@@H](C)[C@@H](CO)NS(=O)(=O)c1ccc(Cl)s1 [Example 27, 5-Chloro-N-[(1S,2R)-1-(hydroxymethyl)-2,4-dimethylpentyl]thiophene-2-sulfonamide]",8.7

# Same assay, conditions: read-out: APPI Fold Increase
row,Compound,fold induction at 20 µg/mL
1,"CC1=CC(C)C(C(CO)NS(=O)(=O)c2ccc(Cl)s2)C(C)C1 (stereo not shown) [Example 22, 5-chloro-N-[2-hydroxy-1-(2,4,6-trimethylcyclohex-3-en-1-yl)ethyl]thiophene-2-sulfonamide]",7
